From patent publication US20240076347A1, “METHODS FOR PREVENTING FUNGAL INFECTIONS” (Cidara Therapeutics, Inc., priority 2016, published 2024)
Numbered stars: 1 amine (or outer) side, 2 acyl side, 3 side chain; on linkers, the order of the positions; unused ones are H or OH. Bridge positions count the residues as written; N and C are the ends. Square brackets hold non-standard residues; d marks the D form. Peptide text beside a SMILES is read from it. * marks the point of attachment. ξ: configuration not given here. Orn(4R-OH,5R-OCH2CH2NMe3+) = C[N+](C)(C)CCO[C@@H](N[*:3])[C@H](O)C[C@H](N[*:1])C(=O)[*:2]; pTerphenylCO(4''-OnC5H11) = CCCCCOc1ccc(-c2ccc(-c3ccc(C(=O)*)cc3)cc2)cc1; hTyr(3S-OH,4S-OH) = N[C@H](C(=O)O)[C@H](O)[C@@H](O)c1ccc(O)cc1; X1 = C[C@H]1CN([*:1])C(C(=O)[*:2])C1O; Hyp = O=C(O)[C@@H]1C[C@@H](O)CN1; ξT = CC(O)C(N)C(=O)O

Experiments:
[1] = Early pharmacokinetic studies, SC tolerability; type: in vivo, rats and monkeys; details: lower doses (≤5 mg/kg)
[2] = tested on: C. albicans strain 529L; test: Rat model of vulvovaginal candidiasis, vaginal lavage and tissue burden; type: in vivo, Candida albicans; details: for reduction in terminal vaginal tissue burden: not statistically lower than vehicle
Protocol: Animal Strain. Wistar rats were supplied by Harlan Laboratories UK and were specific pathogen free. Rats weighed […] at the time of surgery. Ovariectomies were performed. Rats were allowed 4-7 days recovery before transportation to the facility where the experiment was to be performed. Following arrival, rats were allowed at least 4 days acclimatization before start of the experiment. Rats weighed 100-120 g at the time of ovariectomy and were about 300 g at start of the experiment.
Pre-conditioning. Female Wistar rats underwent ovariectomy at least 10 days prior to the study commencing. They were further pre-conditioned by treatment with 5 mg/kg 17-β-estradiol administered subcutaneously (SC) every other day on Days −7, −5, −3 and −1 prior to infection with C. albicans strain 529. Estradiol treatment continued every other day throughout the study to 7 days post-infection.
Yeast Isolate. Candida albicans strain 529L was used in this chronic rat vaginal infection model.
Infection. Yeast strains were inoculated aerobically onto Sabouraud dextrose agar media (SAB) containing 0.05 mg/mL chloramphenicol and incubated at 30° C. for 48-72 h. 18-24 h prior to infection, Yeast Peptone Dextrose (YPD) broths were inoculated with 2-3 isolated colonies from agar plates and incubated overnight (37° C. on an orbital shaker). Broths containing C. albicans strain 529L were washed 3 times with sterile phosphate buffered saline (PBS) before dilution to the correct inoculum for infection. Cell counts were determined using a haemocytometer and confirmed by quantitative culture on Sabouraud dextrose agar.
Rats were infected with 0.1 mL by intravaginal administration under inhaled isoflurane anaesthesia using about 9.8×10^5 CFU/mL (9.8×10^4 CFU/Rat) C. albicans strain 529L
Treatment. […] The fluconazole treatment also started at 24 h post infection but was administered by the PO route at the dose volume and frequency shown in Table 7. The study design is further outlined in FIG. 19.
Reduction in weight and general loss of condition due to estradiol treatment are also typical in this rat model. Colonization with C. albicans was determined by quantitative culture of daily vaginal lavage samples. Rats were euthanized 9 days post infection and C. albicans determined by quantitative culture of vaginal tissue (including uterine horns).
Lavage samples were obtained on Days 1 (pre-treatment), 2, 3, 5, 7, and 9 days post infection by flushing rat vaginas 4 times with 0.1 mL pre-warmed sterile PBS. Following euthanasia, vaginal tissue including uterine horns was removed prior to weighing. Tissues were homogenized in 2 mL sterile PBS using a bead-beater. Vaginal wash and tissue homogenates were diluted appropriately then quantitatively cultured on to Sabouraud dextrose agar containing 0.05 mg/mL chloramphenicol and incubated at 37° C. for up to 72 h before being counted.
Statistical analysis. Data were analyzed using StatsDirect software (version 2.7.8) using the non-parametric Kruskal-Wallis test and if this was statistically significant all pairwise comparisons were analyzed (Conover-Inman).

[3] = lavage Day 1 post treatment (Day 2 post infection), 5 mg/kg SC dosed once
[4] = lavage Day 1 post treatment (Day 2 post infection), 5 mg/kg SC dosed twice
[5] = lavage Day 1 post treatment (Day 2 post infection), 10 mg/kg SC dosed once
[6] = lavage Day 2 post treatment (Day 3 post infection), 5 mg/kg SC dosed once
[7] = lavage Day 2 post treatment (Day 3 post infection), 5 mg/kg SC dosed twice
[8] = lavage Day 2 post treatment (Day 3 post infection), 10 mg/kg SC dosed once
[9] = lavage Day 4 post treatment (Day 5 post infection), 5 mg/kg SC dosed once
[10] = lavage Day 4 post treatment (Day 5 post infection), 5 mg/kg SC dosed twice
[11] = lavage Day 4 post treatment (Day 5 post infection), 10 mg/kg SC dosed once
[12] = lavage Day 5 post infection, 10 mg/kg SC once
[13] = lavage Day 6 post treatment (Day 7 post infection), 5 mg/kg SC dosed once
[14] = lavage Day 6 post treatment (Day 7 post infection), 5 mg/kg SC dosed twice
[15] = lavage Day 6 post treatment (Day 7 post infection), 10 mg/kg SC dosed once
[16] = lavage Day 8 post treatment (Day 9 post infection), 5 mg/kg SC dosed once
[17] = lavage Day 8 post treatment (Day 9 post infection), 5 mg/kg SC dosed twice
[18] = lavage Day 8 post treatment (Day 9 post infection), 10 mg/kg SC dosed once
[19] = terminal vaginal tissue (vagina, uterus, uterine horns) Day +9 post infection, 5 mg/kg SC dosed once
[20] = terminal vaginal tissue Day +9 post infection, 5 mg/kg SC dosed twice
[21] = terminal vaginal tissue Day +9 post infection, 10 mg/kg SC dosed once
[22] = vaginal lavage Day 1 post infection, pre-treatment, 5 mg/kg SC dosed once group
[23] = vaginal lavage Day 1 post infection, pre-treatment, 5 mg/kg SC dosed twice group
[24] = vaginal lavage Day 1 post infection, pre-treatment, 10 mg/kg SC dosed once group

SMILES: CCCCCOc1ccc(-c2ccc(-c3ccc(C(=O)N[C@H]4C[C@@H](O)[C@@H](OCC[N+](C)(C)C)NC(=O)C5C(O)[C@@H](C)CN5C(=O)[C@H]([C@@H](C)O)NC(=O)[C@H]([C@H](O)[C@@H](O)c5ccc(O)cc5)NC(=O)[C@@H]5C[C@@H](O)CN5C(=O)C(C(C)O)NC4=O)cc3)cc2)cc1 (stereo partly drawn) [CD101] ({pTerphenylCO(4''-OnC5H11)}-[Orn(4R-OH,5R-OCH2CH2NMe3+)][ξT][Hyp][hTyr(3S-OH,4S-OH)]T[X1]; lactam 1-C)
- tolerability of subcutaneous administration [1]: well-tolerated
- reduction in terminal vaginal tissue burden ([2]; 5 mg/kg SC once, Day 9): about 0.4 Log10 CFU/g
- reduction in terminal vaginal tissue burden ([2]; 5 mg/kg SC twice, Day 9): about 0.9 Log10 CFU/g
- rats with tissue burdens below the levels of detection ([2]; 10 mg/kg SC once, Day 9): 5/6
- CFU ([2]; 10 mg/kg SC once, all but one rat, Day 9): undetectable CFU
- Group Geometric mean [2, 3]: 3.34 × 10^2 CFU/mL
- Log Group Geometric mean [2, 3]: 2.52 CFU/mL
- Log reduction from vehicle control [2, 3]: 1.17 CFU/mL
- Group Geometric mean [2, 4]: 2.56 × 10^2 CFU/mL
- Log Group Geometric mean [2, 4]: 2.41 CFU/mL
- Log reduction from vehicle control [2, 4]: 1.29 CFU/mL
- Group Geometric mean [2, 5]: 2.48 × 10^2 CFU/mL
- Log Group Geometric mean [2, 5]: 2.39 CFU/mL
- Log reduction from vehicle control [2, 5]: 1.30 CFU/mL
- burden vs vehicle, statistics ([2]; lavage Day 2 post infection): neither the CD101 nor fluconazole burden was statistically different from the vehicle burden
- reduction in burden ([2]; lavage Day 2 post infection, all doses of CD101): about 1.3 Log10 CFU/mL
- Group Geometric mean [2, 6]: 1.21 × 10^2 CFU/mL
- Log Group Geometric mean [2, 6]: 2.08 CFU/mL
- Log reduction from vehicle control [2, 6]: 1.49 CFU/mL
- Group Geometric mean [2, 7]: 1.95 × 10^2 CFU/mL
- Log Group Geometric mean [2, 7]: 2.29 CFU/mL
- Log reduction from vehicle control [2, 7]: 1.28 CFU/mL
- Group Geometric mean [2, 8]: 23.2 CFU/mL
- Log Group Geometric mean [2, 8]: 1.37 CFU/mL
- Log reduction from vehicle control [2, 8]: 2.21 CFU/mL
- burden vs vehicle, statistics ([2]; lavage Day 3 post infection, all treatments): statistically different from the vehicle treatments
- Group Geometric mean [2, 9]: 1.70 × 10^3 CFU/mL
- Log Group Geometric mean [2, 9]: 3.23 CFU/mL
- Log reduction from vehicle control [2, 9]: 0.99 CFU/mL
- Group Geometric mean [2, 10]: 1.73 × 10^3 CFU/mL
- Log Group Geometric mean [2, 10]: 3.24 CFU/mL
- Log reduction from vehicle control [2, 10]: 0.98 CFU/mL
- Group Geometric mean [2, 11]: 1.73 CFU/mL
- Log Group Geometric mean [2, 11]: 0.24 CFU/mL
- Log reduction from vehicle control [2, 11]: 3.98 CFU/mL
- burden reduced to ([2]; lavage Day 5 post infection, 5 mg/kg SC once or twice, not statistically different from vehicle): about 1 Log10 CFU/m
- burden reduced to [2, 12]: about 4 Logo CFU/mL
- rats having burden below the limit of detection [2, 12]: 5/6
- Group Geometric mean [2, 13]: 4.56 × 10^3 CFU/mL
- Log Group Geometric mean [2, 13]: 3.66 CFU/mL
- Log reduction from vehicle control [2, 13]: 0.52 CFU/mL
- Group Geometric mean [2, 14]: 6.47 × 10^2 CFU/mL
- Log Group Geometric mean [2, 14]: 2.81 CFU/mL
- Log reduction from vehicle control [2, 14]: 1.37 CFU/mL
- Group Geometric mean [2, 15]: 2.59 CFU/mL
- Log Group Geometric mean [2, 15]: 0.41 CFU/mL
- Log reduction from vehicle control [2, 15]: 3.77 CFU/mL
- Group Geometric mean [2, 16]: 4.58 × 10^3 CFU/mL
- Log Group Geometric mean [2, 16]: 3.66 CFU/mL
- Log reduction from vehicle control [2, 16]: 0.64 CFU/mL
- Group Geometric mean [2, 17]: 1.28 × 10^3 CFU/mL
- Log Group Geometric mean [2, 17]: 3.11 CFU/mL
- Log reduction from vehicle control [2, 17]: 1.19 CFU/mL
- Group Geometric mean [2, 18]: 2.75 CFU/mL
- Log Group Geometric mean [2, 18]: 0.44 CFU/mL
- Log reduction from vehicle control [2, 18]: 3.86 CFU/mL
- Group Geometric mean [2, 19]: 1.37 × 10^5 CFU/g
- Log Group Geometric mean [2, 19]: 5.14 CFU/g
- Log reduction from vehicle control [2, 19]: 0.36 CFU/g
- Group Geometric mean [2, 20]: 4.00 × 10^4 CFU/g
- Log Group Geometric mean [2, 20]: 4.60 CFU/g
- Log reduction from vehicle control [2, 20]: 0.89 CFU/g
- Group Geometric mean [2, 21]: 5.52 CFU/g
- Log Group Geometric mean [2, 21]: 0.74 CFU/g
- Log reduction from vehicle control [2, 21]: 4.75 CFU/g
- Group Geometric mean [2, 22]: 9.11 × 10^2 CFU/mL
- Log Group Geometric mean [2, 22]: 2.96 CFU/mL
- Log reduction from vehicle control [2, 22]: −0.52 CFU/mL
- Group Geometric mean [2, 23]: 1.83 × 10^3 CFU/mL
- Log Group Geometric mean [2, 23]: 3.26 CFU/mL
- Log reduction from vehicle control [2, 23]: −0.83 CFU/mL
- Group Geometric mean [2, 24]: 3.68 × 10^2 CFU/mL
- Log Group Geometric mean [2, 24]: 2.57 CFU/mL
- Log reduction from vehicle control [2, 24]: −0.13 CFU/mL
